Experimental data taken from US11911356B2, “Regulation of mutant TERT by BRAF V600E/map kinase pathway through FOS/GABP in human cancer” (THE JOHNS HOPKINS UNIVERSITY, priority 2017, dated 2024).

How the values were obtained:
[1] = test system: K1 cells xenograft tumors; test: Xenograft tumorigenicity assay; assay type: in vivo; conditions: K1 xenograft in nude mice
From the text: FIG. 1A-1G. Cooperative role of BRAF V600E and TERT in the oncogenic behavior and tumor growth of cancer cells. Specific shRNA against BRAF and siRNA against TERT were used to knock down BRAF and TERT in the indicated cancer cells, respectively, followed by performance of assays of MTT of cell proliferation (FIG. 1A), transwell cell migration (FIG. 1B), cell invasion (FIG. 1C), and colony formation in soft agar (FIG. 1D) (with representative images shown in the left panel and the average colony numbers in the right panel). Western blotting analysis of TERT and phosphorylation of ERK (p-ERK) was performed for K1 cells (FIG. 1E), from which xenograft tumors were derived to test the role of TERT and BRAF V600E in tumor development and growth (FIG. 1F, FIG. 1G). […] The “Control” in FIG. 1A-1D represented the combination of scramble shRNA and Control siRNA. […] The red horizontal bar on the left of FIG. 1D represents 100 μm; colonies larger than this size were counted and colony numbers are shown on the right of the panel. […]
All animal experiments were approved and performed according to the guidelines of the Institutional Animal Care and Use Committee (IACUC) of Johns Hopkins University. […] Tumor size was measured twice a week on the skin surface of the animal using a caliper and tumor volume was calculated using the formula (width^2×length)/2 as previously described. […]

[2] = test system: TERT promoter; test: TERT promoter luciferase reporter assay in K1 cells; assay type: cell-based, human; conditions: K1 cells harboring BRAF V600E; PLX4032 0.5 uM
Experimental: FIG. 2A-2G. BRAF V600E/MAPK pathway regulated TERT expression. (FIG. 2A) TERT expression was analyzed by qRT-PCR in cells treated with 0.5 uM PLX4032 or 0.2 uM AZD6244 for 24 hours (upper panel). The corresponding levels of phosphorylated ERK (p-ERK), total ERK (t-ERK), and beta-actin were detected by Western blotting (lower panel). The relative TERT mRNA expression levels were normalized to the DMSO control group. (FIG. 2B) Luciferase reporting assay of TERT promoter activities in K1 cells treated with DMSO or PLX4032 (0.5 uM). (FIG. 2C, 2D) Specific shRNA against BRAF were used to knock down BRAF in thyroid cancer cell lines BCPAP and K1 and melanoma cell line A375. Scramble shRNA was used as control. Cells were then subjected to Western blotting (FIG. 2C) and qRT-PCR (FIG. 2D). […]
For promoter activity assay, cells were seeded in triplicate into a 24-well plate and then transfected with 300 ng pGL3 plasmids containing the TERT, GAPBA, or GABPB promoter, together with 12 ng Renilla luciferase (pRL-TK) plasmid (normalizing control) using Lipofectamine 3000 (Invitrogen). At 24 hours after the transfection, cells were lysed and luciferase activities were measured using the Dual-Luciferase Reporter Assay System (Promega). Results were presented as relative luciferase activities, which were obtained by dividing firefly luciferase values with Renilla luciferase values for each set of reading.

## CCCS(=O)(=O)Nc1ccc(F)c(C(=O)c2c[nH]c3ncc(-c4ccc(Cl)cc4)cc23)c1F [PLX4032]
[1]; 10 mg/kg PLX4032 daily by oral gavage
  tumor growth: inhibited tumor growth
[1]; PLX4032 10 mg/kg daily combined with stable TERT knockdown (shTERT)
  tumor growth: nearly completely abolished tumor growth
[2]
  activities of the mutated TERT promoter (C228T or C250T): dramatically reduced
  activity of the wild-type TERT promoter: limited effect
